Test results as given in US20260285888A1, “HETEROCYCLIC COMPOUND AND USE THEREOF” (OTSUKA PHARMACEUTICAL CO., LTD., priority 2023, published 2026).

Columns and labels:
[1] = in vitro; type: cell-based, human; conditions: human, differentiated hl-60 cells, 300 μmol/L, about 24 hours, PMA-differentiated HL-60 cells, LDH; no-treatment 0%, cell lysis buffer 100%; read-out: cytotoxicity (%) Evaluation compound results
Method: An HL-60 cell line (human acute promyelocytic leukemia cells) was successively cultured in RPMI 1640 containing 20% fetal bovine serum (FBS) at 37° C. in 95% atmosphere/5% CO2. Before evaluation, the cells were pre-cultured for about 72 hours in the presence of 10 nM phorbol 12-myristate 13-acetate (PMA) to induce macrophage-like differentiation.
Evaluation compounds were dissolved in DMSO to obtain 30 mmol/L solutions (or suspensions). Each DMSO solution was diluted 100-fold with RPMI 1640 containing 2% FBS (final concentration of the compound: 300 μmol/L) to obtain a treatment solution. The culture supernatant of the differentiated HL-60 cells was removed, and each treatment solution was added and cultured for about 24 hours, followed by cytotoxicity evaluation.
The activity of lactate dehydrogenase (LDH) was measured in the treatment solutions exposed to the cells for about 24 hours by using a commercial kit (Cytotoxicity LDH Assay Kit-WST, Dojindo Laboratories) and a plate reader (Tecan Infinite M1000). The obtained measurement values were used to calculate cytotoxicity (%) as comparison values for each evaluation compound-treated group, with the no-treatment group taken as 0% and the cell lysis buffer-treated group taken as 100%. The test was conducted in triplicate in three wells each, and the average values were used as adopted values.

[2] = Study for confirmation of conversion to brexpiprazole in a buffer (stability of the evaluation compounds); type: physicochemical; conditions: in buffer, average of duplicate; for Concentration of brexpiprazole formed: 60-minute reaction sample; for Concentration of evaluation compound decreased: decrease in 60-minute vs 0-minute reaction sample
Method: The conversion from the evaluation compounds to brexpiprazole in a buffer (i.e., the stability of the evaluation compounds) was evaluated.
The Example 1 compound was dissolved in acetonitrile/water (1:1, v/v) to 10 mmol/L and further diluted with acetonitrile/water (1:1, v/v) to 100 μmol/L for use.
The other Example compounds and the Reference Example 5 compound to Reference Example 7 compound were each dissolved in DMSO to 10 mmol/L and further diluted with acetonitrile to 100 μmol/L for use, except for the following compounds.
The compounds of Examples 52, 95, 96, 117, and 130 (EX 52, EX 95, EX 96, EX 117, and EX 130) were dissolved in acetonitrile/water (8:2, v/v) to 10 mmol/L and further diluted with acetonitrile to 100 μmol/L for use.
The compound of Example 97 (EX 97) was dissolved in acetonitrile/water (8:2, v/v) to 10 mmol/L and further diluted with acetonitrile/water (8:2, v/v) to 100 μmol/L for use.
The compounds of Examples 15 and 116 (EX 15 and EX 116) were dissolved in DMSO to 1 mmol/L and further diluted with acetonitrile to 100 μmol/L for use.
The reaction was conducted by preparing each reaction solution such that the final concentration of each component was as follows. The test was conducted in duplicate.
For the compounds of Examples 1 to 8, 10 to 19, 26 to 27, 37, 50, 87 to 89, 91, 116, 121, 123, 150, and 151 (EX 1 to EX 8, EX 10 to EX 19, EX 26 to EX 27, EX 37, EX 50, EX 87 to EX 89, EX 91, EX 116, EX 121, EX 123, EX 150, and EX 151), and the compounds of Reference Examples 5 to 7 (REX 5 to REX 7), the reaction solution without the evaluation compound (198 μl) was pre-incubated at 37° C. for 3 minutes, and then each of the evaluation compound solutions (2 μl) was added and stirred; thereafter, the reaction was started at 37° C. At 0 minutes or 60 minutes after the start of the reaction, the reaction was stopped by adding and stirring a reaction stop solution (1000 μl) composed of acetonitrile/isopropanol (4:1, v/v) containing internal standard substances. However, the 0-minute reaction sample (198 μl) was prepared by adding the evaluation compound (2 μl) after adding the reaction stop solution (1000 μl). The samples after stopping the reaction were used as the measurement samples. Calibration curve samples with the same composition were prepared (final concentrations of the evaluation compounds and brexpiprazole: 0.01, 0.1, and 1 μmol/L, with the proviso that for the evaluation compounds only, the 0-minute reaction samples were also used as calibration curve samples for 1 μmol/L).
For the compounds of Examples 24 to 25, 28 to 29, 32 to 36, 40 to 49, 51 to 60, 62 to 64, 66 to 77, 80 to 86, 90, 92 to 111, 113, 115, 117 to 120, 122, 124 to 130, 132 to 147, and 152 to 160 (EX 24 to EX 25, EX 28 to EX 29, EX 32 to EX 36, EX 40 to EX 49, EX 51 to EX 60, EX 62 to EX 64, EX 66 to EX 77, EX 80 to EX 86, EX 90, EX 92 to EX 111, EX 113, EX 115, EX 117 to EX 120, EX 122, EX 124 to EX 130, EX 132 to EX 147, and EX 152 to EX 160), the reaction solution without the evaluation compound (148.5 μl) was pre-incubated at 37° C. for 3 minutes, and then each of the evaluation compound solutions (1.5 μl) was added and stirred; thereafter, the reaction was started at 37° C. At 0 minutes or 60 minutes after the start of the reaction, the reaction was stopped by adding and stirring a reaction stop solution (600 μl) composed of acetonitrile/isopropanol (4:1, v/v) containing internal standard substances. However, the 0-minute reaction sample (148.5 μl) was prepared by adding the evaluation compound (1.5 μl) after adding the reaction stop solution (600 μl). The samples after stopping the reaction were used as the measurement samples. Calibration curve samples with the same composition were prepared (final concentrations of the evaluation compounds and brexpiprazole: 0.01, 0.1, and 1 μmol/L, with the proviso that for the evaluation compounds only, the 0-minute reaction samples were also used as calibration curve samples for 1 μmol/L). […]

Row | Compound | cytotoxicity at 24 h, 300 µM [1] [%] | Concentration of brexpiprazole formed [2] [nM] | Concentration of evaluation compound decreased [2] [nM]
1 | CCOCCOCCOC(=O)OCOP(=O)([O-])OC[N+]1(CCCCOc2ccc3ccc(=O)[nH]c3c2)CCN(c2cccc3sccc23)CC1 [EX 134, (4-(benzo[b]thiophen-4-yl)-1-(4-((2-oxo-1,2-dihydroquinolin-7-yl)oxy)butyl)piperazin-1-ium-1-yl)methyl (3-oxo-2,4,7,10-tetraoxadodecyl) phosphate] | -7 | 0 | 70
2 | O=c1ccc2ccc(OCCCC[N+]3(COP(=O)([O-])OCCOCC4CC4)CCN(c4cccc5sccc45)CC3)cc2[nH]1 [EX 52, (4-(benzo[b]thiophen-4-yl)-1-(4-((2-oxo-1,2-dihydroquinolin-7-yl)oxy)butyl)piperazin-1-ium-1-yl)methyl (2-(cyclopropylmethoxy)ethyl) phosphate] | -1 | 0 | -40
3 | CN1CCN(CCOP(=O)([O-])OC[N+]2(CCCCOc3ccc4ccc(=O)[nH]c4c3)CCN(c3cccc4sccc34)CC2)CC1 [EX 117, (4-(benzo[b]thiophen-4-yl)-1-(4-((2-oxo-1,2-dihydroquinolin-7-yl)oxy)butyl)piperazin-1-ium-1-yl)methyl (2-(4-methylpiperazin-1-yl)ethyl) phosphate] | -7 | 0 | 50
4 | CCCCCCCC(=O)OC(C)OP(=O)([O-])OC[N+]1(CCCCOc2ccc3ccc(=O)[nH]c3c2)CCN(c2cccc3sccc23)CC1 (stereo not shown) [EX 26, (4-(benzo[b]thiophen-4-yl)-1-(4-((2-oxo-1,2-dihydroquinolin-7-yl)oxy)butyl)piperazin-1-ium-1-yl)methyl (1-(octanoyloxy)ethyl) phosphate] | -5 | 0 | 50
5 | CC(C)COC(=O)[C@@H](C)OP(=O)([O-])OC[N+]1(CCCCOc2ccc3ccc(=O)[nH]c3c2)CCN(c2cccc3sccc23)CC1 [EX 107, (R)-(4-(benzo[b]thiophen-4-yl)-1-(4-((2-oxo-1,2-dihydroquinolin-7-yl)oxy)butyl)piperazin-1-ium-1-yl)methyl (1-isobutoxy-1-oxopropan-2-yl) phosphate] | -6 | 0 | 70
6 | CCOCC(=O)OCOP(=O)([O-])OC[N+]1(CCCCOc2ccc3ccc(=O)[nH]c3c2)CCN(c2cccc3sccc23)CC1 [EX 31, (4-(benzo[b]thiophen-4-yl)-1-(4-((2-oxo-1,2-dihydroquinolin-7-yl)oxy)butyl)piperazin-1-ium-1-yl)methyl ((2-ethoxyacetoxy)methyl) phosphate] | -8 | – | –
7 | CCC(=O)OP(=O)([O-])OC[N+]1(CCCCOc2ccc3ccc(=O)[nH]c3c2)CCN(c2cccc3sccc23)CC1 [EX 148, (4-(benzothiophen-4-yl)-1-(4-((2-oxo-1H-quinolin-7-yl)oxy)butyl)piperazin-1-ium-1-yl)methyl propanoyl phosphate] | -5 | – | –
8 | O=C(OC[N+]1(CCCCOc2ccc3ccc(=O)[nH]c3c2)CCN(c2cccc3sccc23)CC1)N1CCCCC1 [REX 4, 4-(benzo[b]thiophen-4-yl)-1-(4-((2-oxo-1,2-dihydroquinolin-7-yl)oxy)butyl)-1-(((piperidine-1-carbonyl)oxy)methyl)piperazin-1-ium iodide, reference compound] | 83 | – | –
9 | O=C(OCCCO)OCOP(=O)([O-])OC[N+]1(CCCCOc2ccc3ccc(=O)[nH]c3c2)CCN(c2cccc3sccc23)CC1 [EX 131, (4-(benzo[b]thiophen-4-yl)-1-(4-((2-oxo-1,2-dihydroquinolin-7-yl)oxy)butyl)piperazin-1-ium-1-yl)methyl ((((3-hydroxypropoxy)carbonyl)oxy)methyl) phosphate] | 10 | – | –
10 | CC(C)C(=O)OP(=O)([O-])OC[N+]1(CCCCOc2ccc3ccc(=O)[nH]c3c2)CCN(c2cccc3sccc23)CC1 [EX 149, (4-(benzothiophen-4-yl)-1-(4-((2-oxo-1H-quinolin-7-yl)oxy)butyl)piperazin-1-ium-1-yl)methyl 2-methylpropanoyl phosphate] | -3 | – | –
11 | COCC(=O)OCOP(=O)([O-])OC[N+]1(CCCCOc2ccc3ccc(=O)[nH]c3c2)CCN(c2cccc3sccc23)CC1 [EX 30, (4-(benzo[b]thiophen-4-yl)-1-(4-((2-oxo-1,2-dihydroquinolin-7-yl)oxy)butyl)piperazin-1-ium-1-yl)methyl ((2-methoxyacetoxy)methyl) phosphate] | 14 | – | –
12 | CC(C)=CCC/C(C)=C\COP(=O)([O-])OC[N+]1(CCCCOc2ccc3ccc(=O)[nH]c3c2)CCN(c2cccc3sccc23)CC1 [EX 38, (Z)-(4-(benzo[b]thiophen-4-yl)-1-(4-((2-oxo-1,2-dihydroquinolin-7-yl)oxy)butyl)piperazin-1-ium-1-yl)methyl (3,7-dimethylocta-2,6-dien-1-yl) phosphate] | 0 | – | –
13 | CCOC(=O)CCCCCOP(=O)([O-])OC[N+]1(CCCCOc2ccc3ccc(=O)[nH]c3c2)CCN(c2cccc3sccc23)CC1 [EX 61, (4-(benzo[b]thiophen-4-yl)-1-(4-((2-oxo-1,2-dihydroquinolin-7-yl)oxy)butyl)piperazin-1-ium-1-yl)methyl (6-ethoxy-6-oxohexyl) phosphate] | 5 | – | –
14 | O=C(O)CCOP(=O)([O-])OC[N+]1(CCCCOc2ccc3ccc(=O)[nH]c3c2)CCN(c2cccc3sccc23)CC1 [EX 112, (4-(benzo[b]thiophen-4-yl)-1-(4-((2-oxo-1,2-dihydroquinolin-7-yl)oxy)butyl)piperazin-1-ium-1-yl)methyl (2-carboxyethyl) phosphate] | -7 | – | –
15 | CC(C)=CCC/C(C)=C/COP(=O)([O-])OC[N+]1(CCCCOc2ccc3ccc(=O)[nH]c3c2)CCN(c2cccc3sccc23)CC1 [EX 39, (E)-(4-(benzo[b]thiophen-4-yl)-1-(4-((2-oxo-1,2-dihydroquinolin-7-yl)oxy)butyl)piperazin-1-ium-1-yl)methyl (3,7-dimethylocta-2,6-dien-1-yl) phosphate] | 2 | – | –
